Laboratory results from patent publication US12252701B2, “Chimeric antigen receptor T cell therapy” (KITE PHARMA, INC., priority 2020, dated 2025).

Columns and labels:
[1] = system: NALM6.GFP.LUC.CD19 target cells; experiment: Serial killing assay; type: cell-based, human
Description: CD19 CAR-T cells were thawed in RPMI media supplemented with HEPES, Penicillin/Streptomycin/L-Glutamine and 10% FBS and rested overnight. The following day, drugs were serially diluted and prepared in 96-well plates. Rested T cells were counted and normalized so that 25,000 or 8,333 T cells were plated with 25,000 NALM6.GFP.LUC.CD19 target cells (1:1 or 1:3 Effector:Target ratio) in the prepared 96-well plates. At 16 hour post-incubation and every 3-4 days, T cell killing of targets was measured via luciferase detection. D-luciferin substrate was added to the co-culture wells at a final concentration of 0.14 mg/mL and plates were incubated at 37° C. in the dark for 10 minutes. Luminescent signal was read immediately after in a VarioSkan™ LUX microplate reader. T cell-mediated cytotoxicity was calculated as follows: % Cytotoxicity=[1−luciferase signal of (sample of interest/target alone control)]*100. Afterwards, co-cultures were stained with LIVE/DEAD and antibodies against CD4, CD8 and KIP-1 and then washed. Cells were then analyzed and quantified via the Attune NxT flow cytometer. T cells were then repeatedly stimulated with fresh 25,000 target cells, and this process was repeated every 3-4 days.

[2] = cited from earlier work
CAR-T cells = experiment: CAR-T cell expansion assay (KIP-1 or CD3/CD28 stimulation); conditions: for % viabili.: CD3/CD28 stimulation; for % viabi.: KIP-1 stimulation
[3] = system: NALM6.GFP.LUC.CD19 target cells; experiment: Serial killing assay of CAR-T, percent cytotoxicity by luciferase detection; conditions: two different E:T ratios, dose titration

In the case of `CCS(=O)(=O)N1CC(CC#N)(n2cc(-c3ncnc4[nH]ccc34)cn2)C1` [baricitinib], the “reduction of clinical dosing required to avoid negative impacts on product performance” value [1] is given as “roughly 4 fold”, the Cmax ([2]; clinical dosing 2 mg daily, cell prints (nM)) is given as 45.7 nM and the Protein binding ([2]; plasma protein binding, reported) is given as 50%. For the same compound, the “% viability” value (CAR-T cells; CD3/CD28, dose 5 nM, day 4) was 72.9%, the “% viability” value (CAR-T cells; CD3/CD28, dose 5 nM, day 8) was 55.7% and the “% viability” value (CAR-T cells; CD3/CD28, dose 5 nM, day 12) was 83.1%. For the same compound, the “% viability” value (CAR-T cells; CD3/CD28, dose 10 nM, day 4) was 70.7%, the “% viability” value (CAR-T cells; CD3/CD28, dose 10 nM, day 12) was 84.7% and the “% viabili.” value (CAR-T cells; 10 nM, Day 0) was 84%. For the same compound, the “% viabili.” value (CAR-T cells; 10 nM, Day 4) was 82.3%, the “% viabili.” value (CAR-T cells; 10 nM, Day 8) was 90.2% and the “% viabili.” value (CAR-T cells; 10 nM, Day 12) was 80.2%. For the same compound, the “% viabili.” value (CAR-T cells; 20 nM, Day 0) was 84%, the “% viabili.” value (CAR-T cells; 20 nM, Day 4) was 86.4% and the “% viabili.” value (CAR-T cells; 20 nM, Day 8) was 82.5%. The “% viabili.” value (CAR-T cells; 20 nM, Day 12) was 76.7%, the “% viabili.” value (CAR-T cells; 40 nM, Day 0) was 84% and the “% viabili.” value (CAR-T cells; 40 nM, Day 4) was 89.8%. For the same compound, the “% viabili.” value (CAR-T cells; 40 nM, Day 8) was 85.7%, the “% viabili.” value (CAR-T cells; 40 nM, Day 12) was 74.7% and the “% viabili.” value (CAR-T cells; 60 nM, Day 0) was 84%. For the same compound, the “% viabili.” value (CAR-T cells; 60 nM, Day 4) was 91.7%, the “% viabili.” value (CAR-T cells; 60 nM, Day 8) was 91.3% and the “% viabili.” value (CAR-T cells; 60 nM, Day 12) was 71.5%. For the same compound, the “% viabili.” value (CAR-T cells; 80 nM, Day 0) was 84%, the “% viabili.” value (CAR-T cells; 80 nM, Day 4) was 91.1% and the “% viabili.” value (CAR-T cells; 80 nM, Day 8) was 83.6%. The “% viabili.” value (CAR-T cells; 80 nM, Day 12) was 67.7%, the “% viabili.” value (CAR-T cells; 100 nM, Day 0) was 84% and the “% viabili.” value (CAR-T cells; 100 nM, Day 4) was 86.8%. For the same compound, the “% viabili.” value (CAR-T cells; 100 nM, Day 8) was 73.3%, the “% viabili.” value (CAR-T cells; 100 nM, Day 12) was 76.3% and the “% viability” value (CAR-T cells; KIP-1, dose 10 nM, day 8) was 58.7%. For the same compound, the “% viabi.” value (CAR-T cells; 10 nM, Day 0) was 84%, the “% viabi.” value (CAR-T cells; 10 nM, Day 4) was 64.7% and the “% viabi.” value (CAR-T cells; 10 nM, Day 8) was 55.2%. For the same compound, the “% viabi.” value (CAR-T cells; 10 nM, Day 12) was 70.4%, the “% viabi.” value (CAR-T cells; 20 nM, Day 0) was 84% and the “% viabi.” value (CAR-T cells; 20 nM, Day 4) was 61.3%. The “% viabi.” value (CAR-T cells; 20 nM, Day 8) was 78%, the “% viabi.” value (CAR-T cells; 20 nM, Day 12) was 73.5% and the “% viabi.” value (CAR-T cells; 40 nM, Day 0) was 84%. For the same compound, the “% viabi.” value (CAR-T cells; 40 nM, Day 4) was 65%, the “% viabi.” value (CAR-T cells; 40 nM, Day 8) was 77.8% and the “% viabi.” value (CAR-T cells; 40 nM, Day 12) was 68.8%. The “% viabi.” value (CAR-T cells; 60 nM, Day 0) was 84%, the “% viabi.” value (CAR-T cells; 60 nM, Day 4) was 57.8% and the “% viabi.” value (CAR-T cells; 60 nM, Day 8) was 57.6%. For the same compound, the “% viabi.” value (CAR-T cells; 60 nM, Day 12) was 70.8%, the “% viabi.” value (CAR-T cells; 80 nM, Day 0) was 84% and the “% viabi.” value (CAR-T cells; 80 nM, Day 4) was 66.2%. The “% viabi.” value (CAR-T cells; 80 nM, Day 8) was 69.4%, the “% viabi.” value (CAR-T cells; 80 nM, Day 12) was 69.5% and the “% viabi.” value (CAR-T cells; 100 nM, Day 0) was 84%. For the same compound, the “% viabi.” value (CAR-T cells; 100 nM, Day 4) was 67.7%, the “% viabi.” value (CAR-T cells; 100 nM, Day 8) was 78.1% and the “% viabi.” value (CAR-T cells; 100 nM, Day 12) was 65.2%. For the same compound, the “impact on CAR-T serial killing (percent cytotoxicity)” value [3] was “negative impacts”.
